# From US10865376B2, “Method for detecting the presence or absence of biological particles” (bioMérieux, priority 2014, dated 2020)
# What was measured:
# Format in all cases: cell-based
# [1] = system: Escherichia coli (ATCC 35218); assay: Detection of the inhibition zone around a support impregnated with antibiotic, by ombroscopy / micro-ombroscopy
# Description: (§1) In general terms, referring to FIG. 2, the method of detection 100 of the present invention comprises a first step 101 of seeding the culture medium 2 with an extract of biological particles 1. The extract of biological particles 1 is for example a raw sample of biological particles 1 taken from the patient directly. In this case the raw sample undergoes a preculture phase for isolating strains of biological particles 1 present, in the case of a sample comprising a diversity of biological particles 1, and increase of the biological particles 1 selected and isolated. […] The sample of biological particles 1 has a biomass of biological particles 1 that is sufficient to be analyzed validly, such as a standard at a concentration of 0.5 McFarland. The extract of biological particles 1 is for example from urine, blood, cerebrospinal fluid or a similar biological fluid.
# The culture medium 2 is for example flooded with the extract of biological particles 1, or the culture medium 2 is seeded with biological particles 1 by swabbing, or the culture medium 2 receives the biological particles by spreading them using a rake. Then, the Petri dish 4 is agitated transversely to distribute the extract of biological particles 1 as uniformly as possible on the culture medium 2, and then any supernatant is removed from the Petri dish 4. The first step of seeding 101 may have features different from those described above without departing from the rules of the present invention.
# The method of detection 100 then comprises a second step 102 of receiving at least one dose of the chemical agent 3 at the initial time point T0, for example starting from placement of at least one impregnated support 5 inoculated with the chemical agent 3 on a receiving zone R of the impregnated support 5 on the culture medium 2.
# The impregnated support 5 is for example a disk impregnated with the chemical agent 3, the disk having the overall conformation of a thin slice of a cylinder. The disk comprises an amount of chemical agent 3 that is homogeneous overall in its volume. […]
# [2] = system: Escherichia coli (ATCC 25922); assay: Detection of the inhibition zone around a support impregnated with antibiotic, by micro-ombroscopy; conditions: micro-ombroscopy (FIG. 10 device), detection time TX of two hours
# Description: as §1
# The culture medium 2 is for example flooded with the extract of biological particles 1, or the culture medium 2 is seeded with biological particles 1 by swabbing, or the culture medium 2 receives the biological particles by spreading them using a rake. Then, the Petri dish 4 is agitated transversely to distribute the extract of biological particles 1 as uniformly as possible on the culture medium 2, and then any supernatant is removed from the Petri dish 4. […]
# [3] = system: Escherichia coli (ATCC 25922); assay: Minimum inhibitory concentration calculated from the normed representation (ombroscopy image plus ruler); conditions: starting from six hours, FIGS. 26 and 27
# Description: (§2) The impregnated support 5 is for example also a slender strip, of overall rectangular conformation. The strip comprises for example a concentration of chemical agent 3 that follows an increasing concentration gradient from one short edge to an opposite short edge of the strip. In FIG. 19, the fifth processing step 105 comprises a second phase X2 of taking a control photograph 7' of a ruler 15 arranged on the culture medium 2 contained in the Petri dish 4, the second phase X2 also being carried out by the detecting device 12. Then the fifth processing step 105 comprises a third phase X3 of superimposing the image 7 and the control photograph 7' and more particularly of their respective receiving zone R to form a normed representation 7'' of the culture medium 2. In FIG. 20, the fifth processing step 105 comprises a fourth phase X4 of localization of a reference mark 16 of the ruler 15. In the example shown, the reference mark 16 is the indication “256” on the ruler 15, and the reference mark 16 may consist of some other and relatively any indication. The reference mark 16 comprises Cartesian coordinates […] and […]. In FIGS. 21 to 25, the fifth processing step 105 comprises a fifth phase X5 of processing the normed representation 7''. In FIG. 21, the fifth phase X5 comprises at least one smoothing operation for homogenizing the normed representation 7''. […]
# [4] = system: Staphylococcus aureus (ATCC 25923); assay: as above; conditions: starting from six hours, FIG. 28
# Description: as §2
# [5] = system: Escherichia coli (ATCC 35218); assay: Minimum inhibitory concentration / inhibition zone from the normed representation (ombroscopy image plus ruler)
# Description: as §2
smiles,measurement,setting,value
CC1(C)S[C@@H]2[C@H](NC(=O)[C@H](N)c3ccccc3)C(=O)N2[C@H]1C(=O)O [ampicillin],response of the biological particles to the chemical agent (sensitivity / resistance),"[1]; micro-ombroscopy (FIG. 10 device), detection time TX of four hours",resistance
same,response of the biological particles to the chemical agent (sensitivity / resistance),"[1]; ombroscopy (FIG. 9 device), identifiable starting from four hours, images up to twenty-four hours",resistance
same,presence or absence of inhibition zone,"[1]; ombroscopy (FIG. 9 device), starting from four hours",no inhibition zone is detected
same,response of the biological particles to the chemical agent (sensitivity / resistance),[2],sensitivity
same,response characterized from the calculated minimum concentration MIC,[3],sensitive
same,response characterized from the calculated minimum concentration MIC,[4],sensitive
same,response from the normed representation,"[5]; FIG. 29, based on absence of a first inhibition zone Z1",resistant
same,"response from the normed representations, according to EUCAST",[5]; FIG. 30,resistant
